The values that follow are results of earlier work, collected in publication PMC3745299 (Journal of medicinal chemistry, 2013).

For orientation: MIC90 means the lowest concentration that inhibits either 90% of growth or 90% of the strains tested, depending on the study.

SMILES strings stand for the structures. Like-named read-outs stand apart in the source and are kept apart here.

The subject of series [1] is human pregnane X receptor (hPXR). Particulars: below 100 μM.
Series [2] concerns Mycobacterium tuberculosis.
Series [3] deals with Cyp450. Conditions: rat.
The subject of series [4] is Cyp450. Conditions: dog.

`CO[C@H]1/C=C/O[C@@]2(C)Oc3c(C)c(O)c4c(=O)c(c5oc6cc(N7CCN(CC(C)C)CC7)cc(O)c6nc-5c4c3C2=O)NC(=O)/C(C)=C\C=C\[C@H](C)[C@H](O)[C@@H](C)[C@@H](O)[C@@H](C)[C@H](OC(C)=O)[C@@H]1C` [bxRIF2a, rifalazil]: the “hPXR activation in vitro” value in series [1] was “essentially no hPXR activation”. In addition, in series [2], the MIC90 is given as less than 4 nM. The Cyp450 induction activity result in series [3] and in series [4] was “dramatically reduced” in each case.
